According to paper PMC10054465, “Design, Synthesis, and Antiviral Activities of New Benzotriazole-Based Derivatives” (Pharmaceuticals, 2023):

test system: Sb-1; experiment: microbe, parasite or virus in culture; assay type: cell-based, human enterovirus C (poliovirus type-1); conditions: Enterovirus C, Vero 76, read-out: Sb-1 EC50

Row | Compound | EC50 [µM]
1 | Cc1cc(CCCOc2c(C)cc(-c3noc(C(F)(F)F)n3)cc2C)on1 [Plec, pleconaril, reference compound] | 2 ± 0.62

test system: CVB5; experiment: microbe, parasite or virus in culture; assay type: cell-based, human enterovirus B (coxsackievirus B5); conditions: not given

Row | Compound | antiviral activity (in words)
2 | CC(=O)Nc1cccc(Cn2nnc3cc(Cl)c(Cl)cc32)c1 [35a] | no antiviral activity
3 | CCC(=O)Nc1cccc(Cn2nnc3cc(Cl)c(Cl)cc32)c1 [36a] | no antiviral activity

same assay, conditions: Enterovirus B, CVB5, Vero 76, read-out: CVB5 EC50

Row | Compound | EC50 [µM]
4 | Cc1cc2nnn(Cc3ccc(N)cc3)c2cc1C [12b] | 100
5 | Nc1ccc(Cn2nnc3c(F)cccc32)cc1 [12e] | 100
6 | Cc1cc(CCCOc2c(C)cc(-c3noc(C(F)(F)F)n3)cc2C)on1 [Plec, pleconaril, reference compound] | 0.005 ± 0.002

test system: YFV; experiment: microbe, parasite or virus in culture; assay type: cell-based; conditions: Yellow fever virus, BHK-21, read-out: YFV EC50

Row | Compound | EC50 [µM]
7 | C[C@@]1(O)[C@H](O)[C@@H](CO)O[C@H]1n1cnc2c(=O)[nH]c(N)nc21 [NM108, 2′-C-methyl-guanosine, reference compound] | 1

test system: not listed separately; experiment: Cytotoxicity in mock-infected MDBK cells (MTT); conditions: cattle (Bos taurus)

Row | Compound | CC50 [µM]
8 | NC(=O)c1ncn([C@@H]2O[C@H](CO)[C@@H](O)[C@H]2O)n1 [Ribav, ribavirin, reference compound] | 52

same assay, conditions: cattle (Bos taurus), mock-infected

Row | Compound | CC50 [µM]
9 | COc1ccc(C(=O)Nc2ccc(Cn3nnc4ccccc43)cc2)cc1 [86c] | 87
10 | C[C@@]1(O)[C@H](O)[C@@H](CO)O[C@H]1n1cnc2c(=O)[nH]c(N)nc21 [NM108, 2′-C-methyl-guanosine, reference compound] | > 100
11 | NC(=O)c1ncn([C@@H]2O[C@H](CO)[C@@H](O)[C@H]2O)n1 [Ribav, ribavirin, reference compound] | 35

test system: HSV-1; experiment: microbe, parasite or virus in culture; assay type: cell-based, human herpesvirus 1; conditions: Human alphaherpesvirus 1, Vero 76, read-out: HSV-1 EC50

Row | Compound | EC50 [µM]
12 | Nc1nc2c(ncn2COCCO)c(=O)[nH]1 [ACG, acycloguanosine, reference compound] | 2.4 ± 0.6

test system: not listed separately; experiment: Cytotoxicity in mock-infected BHK-21 monolayers (MTT); conditions: Syrian hamster (Mesocricetus auratus), BHK-21 cell monolayers, mock-infected

Row | Compound | CC50 [µM]
13 | COc1ccc(C(=O)Nc2ccc(Cn3nnc4ccccc43)cc2)cc1 [86c] | 95
14 | C[C@@]1(O)[C@H](O)[C@@H](CO)O[C@H]1n1cnc2c(=O)[nH]c(N)nc21 [NM108, 2′-C-methyl-guanosine, reference compound] | > 100

test system: not listed separately; experiment: Cytotoxicity in mock-infected Vero-76 monolayers; conditions: African green monkey (Cercopithecus aethiops), Vero-76 cell monolayers, mock-infected

Row | Compound | CC50 [µM]
15 | COc1ccc(C(=O)Nc2ccc(Cn3nnc4ccccc43)cc2)cc1 [86c] | 85
16 | Nc1nc2c(ncn2COCCO)c(=O)[nH]1 [ACG, acycloguanosine, reference compound] | > 100
17 | Cc1cc(CCCOc2c(C)cc(-c3noc(C(F)(F)F)n3)cc2C)on1 [Plec, pleconaril, reference compound] | 77 ± 6.8

test system: BVDV; experiment: microbe, parasite or virus in culture; assay type: cell-based; conditions: Bovine viral diarrhea virus isolates and strains, MDBK, read-out: BVDV EC50

Row | Compound | EC50 [µM]
18 | COc1ccc(C(=O)Nc2ccc(Cn3nnc4ccccc43)cc2)cc1 [86c] | 3
19 | C[C@@]1(O)[C@H](O)[C@@H](CO)O[C@H]1n1cnc2c(=O)[nH]c(N)nc21 [NM108, 2′-C-methyl-guanosine, reference compound] | 1.5
20 | NC(=O)c1ncn([C@@H]2O[C@H](CO)[C@@H](O)[C@H]2O)n1 [Ribav, ribavirin, reference compound] | 12

same assay, conditions: Bovine viral diarrhea virus isolates and strains, MDBK, read-out: BVDV EC50, second value after slash

Row | Compound | EC50 [µM]
21 | NC(=O)c1ncn([C@@H]2O[C@H](CO)[C@@H](O)[C@H]2O)n1 [Ribav, ribavirin, reference compound] | 18

test system: not given; experiment: not given; conditions: not given

Row | Compound | melting point [°C]
22 | CCCNC(=O)Nc1ccc(Cn2nnc3ccccc32)cc1 | 165 to 167
23 | O=C(Nc1ccc(Cn2nnc3ccccc32)cc1)NC1CCCCC1 | 141 to 143
24 | O=C(Nc1ccccc1)Nc1ccc(Cn2nnc3ccccc32)cc1 | 159 to 161
25 | CCNC(=O)Nc1ccc(Cn2nnc3cc(F)c(F)cc32)cc1 | 286 to 287
26 | CCCNC(=O)Nc1ccc(Cn2nnc3cc(F)c(F)cc32)cc1 | 286 to 287
27 | CCCCNC(=O)Nc1ccc(Cn2nnc3cc(F)c(F)cc32)cc1 | 193 to 194
28 | O=C(Nc1ccc(Cn2nnc3cc(F)c(F)cc32)cc1)NC1CCCCC1 | 203 to 204
29 | CC(=O)Nc1ccc(Cn2nnc3c(F)cccc32)cc1 | 233 to 234
30 | CCC(=O)Nc1ccc(Cn2nnc3c(F)cccc32)cc1 | 244 to 246
31 | CCCC(=O)Nc1ccc(Cn2nnc3c(F)cccc32)cc1 | 215 to 216
32 | O=C(Nc1ccc(Cn2nnc3c(F)cccc32)cc1)c1ccccc1 | 214 to 217
33 | COc1ccc(C(=O)Nc2ccc(Cn3nnc4c(F)cccc43)cc2)cc1 | 266 to 268
34 | O=C(Nc1ccc(Cn2nnc3c(F)cccc32)cc1)c1ccc([N+](=O)[O-])cc1 | 272 to 274
35 | CC(=O)Nc1cccc(Cn2nc3cc(C)c(C)cc3n2)c1 | 184 to 187
36 | CCC(=O)Nc1cccc(Cn2nc3cc(C)c(C)cc3n2)c1 | 178 to 182
37 | Cc1cc2nn(Cc3cccc(NC(=O)c4ccc(Cl)cc4)c3)nc2cc1C | 246 to 247
38 | Cc1cc2nn(Cc3cccc(NC(=O)c4ccc(Br)cc4)c3)nc2cc1C | 267 to 268
39 | Cc1cc2nn(Cc3cccc(NC(=O)c4ccc([N+](=O)[O-])cc4)c3)nc2cc1C | 184 to 187
40 | CCNC(=O)Nc1cccc(Cn2nc3cc(C)c(C)cc3n2)c1 | 218 to 219
41 | CCCNC(=O)Nc1cccc(Cn2nc3cc(C)c(C)cc3n2)c1 | 204 to 206
42 | Cc1cc2nn(Cc3cccc(NC(=O)NC4CCCC4)c3)nc2cc1C | 298 to 299
43 | Cc1cc2nn(Cc3cccc(NC(=O)NC4CCCCC4)c3)nc2cc1C | 299 to 300
44 | CC(=O)Nc1cccc(Cn2nnc3cc(C)c(C)cc32)c1 | 198 to 200
45 | CCC(=O)Nc1cccc(Cn2nnc3cc(C)c(C)cc32)c1 | 155 to 157
46 | Cc1ccc(C(=O)Nc2cccc(Cn3nnc4cc(Cl)c(Cl)cc43)c2)cc1 | 199 to 200
47 | COc1ccc(C(=O)Nc2cccc(Cn3nnc4cc(Cl)c(Cl)cc43)c2)cc1 | 221 to 223

Row | Compound | melting point [°C]
48 | O=C(Nc1cccc(Cn2nnc3cc(Cl)c(Cl)cc32)c1)c1ccc(F)cc1 | 184 to 186
49 | N#Cc1ccc(C(=O)Nc2cccc(Cn3nnc4cc(Cl)c(Cl)cc43)c2)cc1 | 167 to 169
50 | O=C(Nc1cccc(Cn2nnc3cc(Cl)c(Cl)cc32)c1)c1ccc(C(F)(F)F)cc1 | 211 to 213
51 | O=C(Nc1cccc(Cn2nnc3cc(Cl)c(Cl)cc32)c1)c1ccc([N+](=O)[O-])cc1 | 217 to 218
52 | Nc1ccc(C(=O)Nc2cccc(Cn3nnc4cc(Cl)c(Cl)cc43)c2)cc1 | 101 to 102
53 | Cc1ccc(C(=O)Nc2cccc(Cn3nnc4cc(C)c(C)cc43)c2)cc1 | 211 to 212
54 | COc1ccc(C(=O)Nc2cccc(Cn3nnc4cc(C)c(C)cc43)c2)cc1 | 203 to 206
55 | Cc1cc2nnn(Cc3cccc(NC(=O)c4ccc(F)cc4)c3)c2cc1C | 143 to 147
56 | Cc1cc2nnn(Cc3cccc(NC(=O)c4ccc(Br)cc4)c3)c2cc1C | 237 to 238
57 | Cc1cc2nnn(Cc3cccc(NC(=O)c4ccc(C#N)cc4)c3)c2cc1C | 242 to 247
58 | Cc1cc2nnn(Cc3cccc(NC(=O)c4ccc(C(F)(F)F)cc4)c3)c2cc1C | 201 to 203
59 | Cc1cc2nnn(Cc3cccc(NC(=O)c4ccc([N+](=O)[O-])cc4)c3)c2cc1C | 227 to 230
60 | CCNC(=O)Nc1cccc(Cn2nnc3cc(Cl)c(Cl)cc32)c1 | 244 to 245
61 | CCCNC(=O)Nc1cccc(Cn2nnc3cc(Cl)c(Cl)cc32)c1 | > 300
62 | CCCCNC(=O)Nc1cccc(Cn2nnc3cc(Cl)c(Cl)cc32)c1 | 232 to 233
63 | O=C(Nc1cccc(Cn2nnc3cc(Cl)c(Cl)cc32)c1)NC1CCCC1 | 231 to 232
64 | CCNC(=O)Nc1cccc(Cn2nnc3cc(C)c(C)cc32)c1 | 271 to 273
65 | CCCNC(=O)Nc1cccc(Cn2nnc3cc(C)c(C)cc32)c1 | 189 to 191
66 | CCC(C)NC(=O)Nc1cccc(Cn2nnc3cc(C)c(C)cc32)c1 (stereo not shown) | 202 to 204
67 | CCCCNC(=O)Nc1cccc(Cn2nnc3cc(C)c(C)cc32)c1 | 195 to 197
68 | Cc1cc2nnn(Cc3cccc(NC(=O)NC(C)(C)C)c3)c2cc1C | 189 to 191
69 | Cc1cc2nnn(Cc3cccc(NC(=O)NC4CCCC4)c3)c2cc1C | 290 to 292
70 | Cc1cc2nnn(Cc3cccc(NC(=O)NC4CCCCC4)c3)c2cc1C | 233 to 235
71 | COc1ccc(NC(=O)Nc2cccc(Cn3nnc4cc(C)c(C)cc43)c2)cc1 | 233 to 235
72 | COc1cc(NC(=O)Nc2cccc(Cn3nnc4cc(C)c(C)cc43)c2)cc(OC)c1OC | 206 to 208
73 | Cc1cc2nnn(Cc3cccc(NC(=O)Nc4ccc(F)cc4)c3)c2cc1C | 245 to 247

Row | Compound | melting point [°C]
74 | Cc1cc2nnn(Cc3cccc(NC(=O)Nc4ccc(Cl)cc4)c3)c2cc1C | 249 to 251
75 | CCC(=O)Nc1ccc(Cn2nnc3ccccc32)cc1 | 192 to 195
76 | CC(=O)Nc1ccc(Cn2nnc3cc(F)c(F)cc32)cc1 | 242 to 243
77 | CCC(=O)Nc1ccc(Cn2nnc3cc(F)c(F)cc32)cc1 | 240 to 242
78 | COc1ccc(C(=O)Nc2ccc(Cn3nnc4cc(C)c(C)cc43)cc2)cc1 | 196 to 198
79 | Cc1cc2nnn(Cc3ccc(NC(=O)c4ccc([N+](=O)[O-])cc4)cc3)c2cc1C | 192 to 194
80 | O=C(Nc1ccc(Cn2nnc3ccccc32)cc1)c1ccc([N+](=O)[O-])cc1 | 245 to 246
81 | COc1cc(C(=O)Nc2ccc(Cn3nnc4ccccc43)cc2)cc(OC)c1OC | 147 to 149
82 | O=C(Nc1ccc(Cn2nnc3ccccc32)cc1)c1ccc(OC(F)(F)F)cc1 | 229 to 231
83 | Cc1ccc(C(=O)Nc2ccc(Cn3nnc4cc(F)c(F)cc43)cc2)cc1 | 297 to 299
84 | O=C(Nc1ccc(Cn2nnc3cc(F)c(F)cc32)cc1)c1ccc([N+](=O)[O-])cc1 | 240 to 242
85 | O=C(Nc1ccc(Cn2nnc3cc(F)c(F)cc32)cc1)c1ccc(F)cc1 | 241 to 242
86 | O=C(Nc1ccc(Cn2nnc3cc(F)c(F)cc32)cc1)c1ccc(Cl)cc1 | 263 to 264
87 | O=C(Nc1ccc(Cn2nnc3cc(F)c(F)cc32)cc1)c1ccc(Br)cc1 | 235 to 236
88 | CCNC(=O)Nc1ccc(Cn2nnc3cc(Cl)c(Cl)cc32)cc1 | 211 to 212
89 | CCCNC(=O)Nc1ccc(Cn2nnc3cc(Cl)c(Cl)cc32)cc1 | 213 to 214
90 | CCCCNC(=O)Nc1ccc(Cn2nnc3cc(Cl)c(Cl)cc32)cc1 | 216 to 217
91 | O=C(Nc1ccc(Cn2nnc3cc(Cl)c(Cl)cc32)cc1)NC1CCCCC1 | 130 to 132
92 | Cc1cc2nnn(Cc3ccc(N)cc3)c2cc1C [12b] | 184 to 186
93 | Nc1ccc(Cn2nnc3c(F)cccc32)cc1 [12e] | 164 to 167
94 | CCC(=O)Nc1cccc(Cn2nnc3cc(Cl)c(Cl)cc32)c1 [36a] | 145 to 146
95 | COc1cc(C(=O)Nc2cccc(Cn3nnc4cc(C)c(C)cc43)c2)cc(OC)c1OC [51b] | 160 to 162
96 | Cc1cc2nnn(Cc3cccc(NC(=O)c4ccc(Cl)cc4)c3)c2cc1C [53b] | 227 to 229
97 | COc1ccc(C(=O)Nc2ccc(Cn3nnc4ccccc43)cc2)cc1 [86c] | 172 to 174
